Where a SMILES comes first, the peptide text is derived from it. The star is where a group is joined. Cbz = O=C(OCc1ccccc1)*
Experiments:
[1] = molecular target: T1, WWP1 (Mus musculus, UniProt Q8BZZ3); test: Active CD8 T cell tumor infiltration, syngenic mice model; assay type: in vivo
T1 construct: from tissue

[2] = tested on: JAK-STAT, NF-kB, and TNFα pathway; test: RNA-seq analysis of immune suppressive pathways in Hi-Myc mice; assay type: in vivo; details: I3C treated Hi-Myc mice, versus vehicle (FIGS. 17-20)
[3] = tested on: PD-L1 protein levels in WWP1 knock-out cells; test: PD-L1 protein levels in WWP1 knock-out cells (gel image); assay type: cell-based; details: MG132 treatment (FIG. 12)

T1 sequence (Q8BZZ3 whole entry): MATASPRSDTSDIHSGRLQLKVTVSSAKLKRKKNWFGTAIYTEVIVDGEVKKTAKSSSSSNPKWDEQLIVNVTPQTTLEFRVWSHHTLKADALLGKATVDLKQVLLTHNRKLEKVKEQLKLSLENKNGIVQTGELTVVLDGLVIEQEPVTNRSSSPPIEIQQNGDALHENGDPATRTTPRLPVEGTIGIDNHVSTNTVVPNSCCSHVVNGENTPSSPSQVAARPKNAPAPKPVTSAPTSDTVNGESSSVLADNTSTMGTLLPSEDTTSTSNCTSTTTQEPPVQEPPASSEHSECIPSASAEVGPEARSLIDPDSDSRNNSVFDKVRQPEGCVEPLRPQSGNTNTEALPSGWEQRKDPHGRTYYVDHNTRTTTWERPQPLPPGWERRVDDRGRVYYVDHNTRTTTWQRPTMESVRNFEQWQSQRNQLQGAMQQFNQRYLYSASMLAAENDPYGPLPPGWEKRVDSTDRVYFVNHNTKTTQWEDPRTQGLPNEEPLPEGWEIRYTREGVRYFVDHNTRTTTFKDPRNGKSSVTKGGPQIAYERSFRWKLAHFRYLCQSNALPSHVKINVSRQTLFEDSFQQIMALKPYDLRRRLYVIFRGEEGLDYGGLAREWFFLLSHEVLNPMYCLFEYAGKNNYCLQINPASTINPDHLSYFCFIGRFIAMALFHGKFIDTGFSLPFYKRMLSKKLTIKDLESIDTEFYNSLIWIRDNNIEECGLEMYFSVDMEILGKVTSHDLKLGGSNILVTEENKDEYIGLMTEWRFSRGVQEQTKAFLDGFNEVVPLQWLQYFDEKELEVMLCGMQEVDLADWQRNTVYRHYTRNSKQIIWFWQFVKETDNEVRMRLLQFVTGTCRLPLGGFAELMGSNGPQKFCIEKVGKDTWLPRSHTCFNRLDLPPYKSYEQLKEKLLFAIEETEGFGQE

tumor size ([1]; tumors, after WWP1 inhibition by I3C) | Compound | active CD8 T cell tumor infiltration ([1]; syngenic mice (FIG. 16)) | immune suppressive pathways (RNA-seq) [2] | PD-L1 protein levels [3]
reducing tumor size | OCc1c[nH]c2ccccc12 [I3C, indole-3-carbinol] | triggers active CD8 T cell tumor infiltration | down-regulation of multiple immune suppressive pathway (JAK-STAT, NF-kB, and TNFα pathway) | 
 | CC(C)C[C@@H](C=O)NC(=O)[C@H](CC(C)C)NC(=O)[C@H](CC(C)C)NC(=O)OCc1ccccc1 [MG132] (Cbz-Leu-Leu-Leu-aldehyde) |  |  | restored PD-L1 protein levels
